Where two headings read alike, the source gives them in different places.
Experiments:
HIV-1LAI = assay: Antiviral MTT assay, MT-2 cells exposed to HIV-1LAI; assay type: cell-based; details: Human immunodeficiency virus 1, MT2
Protocol: As shown in Scheme 4, alcohols 14, 15, 20, and 21 were activated with p-nitrophenyl chloroformate to provide mixed activated carbonates 21a-d. These carbonates were reacted with amine 22 to afford HIV-1 protease inhibitors 23a-d. These inhibitors were evaluated for their activity in both enzyme inhibitory and antiviral assays. The enzyme inhibitory activity (Ki) was determined according to an assay protocol reported by Toth and Marshall (Toth, M. V.; Marshall, G. R. Int. J. Pep. Protein Res. 1990, 36, 544-550). […] Antiviral IC50 values were determined using the MTT assay (Koh, Y., et al., Antimicrob. Agents Chemother. 2003, 47, 3123-3129.).

HIV-1 protease = HIV-1 protease (Human immunodeficiency virus type 1 group M subtype B (isolate HXB2) (HIV-1), UniProt P04585); assay: biochemical; details: enzymatic inhibitory activity

Row | SMILES | IC50 (HIV-1LAI) [nM] | Ki (HIV-1 protease) [nM] | IC50 (HIV-1LAI; Human T-lymphoid (MT-2) cells exposed to 100 TCID50 of HIV-1LAI, MTT assay, means of at least three experiments, read-out: IC50) [nM]
1 | COc1ccc(S(=O)(=O)N(CC(C)C)C[C@@H](O)[C@H](Cc2ccccc2)NC(=O)O[C@H]2CO[C@H]3OC[C@@H](OCc4ccccc4)[C@H]32)cc1 [Compound 23b, (3R,3aS,4S,6aR)-4-(benzyloxy)hexahydrofuro[2,3-b]furan-3-yl-(2S,3R)-3-hydroxy-4-(N-isobutyl-4-methoxyphenylsulfonamido)-1-phenylbutan-2-ylcarbamate] | 335 | 0.073 | –
2 | COc1ccc(S(=O)(=O)N(CC(C)C)C[C@@H](O)[C@H](Cc2ccccc2)NC(=O)O[C@H]2CO[C@H]3OC[C@H](OCc4ccccc4)[C@H]32)cc1 [Compound 23d, (3R,3aS,4R,6aR)-4-(benzyloxy)hexahydrofuro[2,3-b]furan-3-yl-(2S,3R)-3-hydroxy-4-(N-isobutyl-4-methoxyphenylsulfonamido)-1-phenylbutan-2-ylcarbamate] | – | 0.3 | –
3 | COc1ccc(S(=O)(=O)N(CC(C)C)C[C@@H](O)[C@H](Cc2ccccc2)NC(=O)O[C@H]2CO[C@H]3OCC[C@H]32)cc1 [Entry 1, reference compound] | – | – | 1.4
4 | COc1ccc(S(=O)(=O)N(CC(C)C)C[C@@H](O)[C@H](Cc2ccccc2)NC(=O)O[C@H]2CO[C@H]3OC[C@@H](OC)[C@H]32)cc1 [Compound 23a, (3R,3aS,4S,6aR)-4-methoxyhexahydrofuro[2,3-b]furan-3-yl-(2S,3R)-3-hydroxy-4-(N-isobutyl-4-methoxyphenylsulfonamido)-1-phenylbutan-2-ylcarbamate] | 56 | 0.035 | –
5 | COc1ccc(S(=O)(=O)N(CC(C)C)C[C@@H](O)[C@H](Cc2ccccc2)NC(=O)O[C@H]2CO[C@H]3OC[C@H](OC)[C@H]32)cc1 [Compound 23c, (3R,3aS,4R,6aR)-4-methoxyhexahydrofuro[2,3-b]furan-3-yl-(2S,3R)-3-hydroxy-4-(N-isobutyl-4-methoxyphenylsulfonamido)-1-phenylbutan-2-ylcarbamate] | 2.4 | 0.0029 | –
